Laboratory results from patent publication US20050112573A1, “Method of detecting toxic substance” (priority 2001, published 2005).

Tested on: yeast genes (level of expressed mRNA)
Test: DNA chip analysis of expressed mRNA of yeast genes after 2 h culture with a toxic chemical substance
Type: cell-based, Saccharomyces cerevisiae S288C
Procedure, shortened: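 S. cerevisiae S288C in YPD at 25 °C was exposed at log phase for 2 h to a growth-inhibiting, non-lethal concentration of the chemical. Poly(A) mRNA was reverse-transcribed with Cy3- or Cy5-dUTP and hybridized to a whole-genome yeast DNA chip (65 °C, >12 h). Values are fluorescence ratios versus untreated cells.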

Substance: HgCl2 [(3)]
- The level of expressed mRNA in the presence of chemical substance/ (yeast gene YAL053W, ratio to control without chemical): 1.3
- The level of expressed mRNA in the presence of chemical substance/The level of expressed mRNA in the absence of chemical substance (yeast gene YAR010C): 1.2
- The level of expressed mRNA in the presence of chemical substance/The level of expressed mRNA in the absence of chemical substance (yeast gene YBL005W-A): 0.5
- The level of expressed mRNA in the presence of chemical substance/The level of expressed mRNA in the absence of chemical substance (yeast gene YBL041W): 0.9
- The level of expressed mRNA in the presence of chemical substance/The level of expressed mRNA in the absence of chemical substance (yeast gene YBL043W): 1.1
- The level of expressed mRNA in the presence of chemical substance/ (yeast gene YBL048W, ratio to control without chemical substance, 2 h culture): 2.3
- The level of expressed mRNA in the presence of chemical substance/The level of expressed mRNA in the absence of chemical substance (yeast gene YBL078C): 1.3
- The level of expressed mRNA in the presence of chemical substance/ (yeast gene YBL107C, ratio to control without chemical substance, 2 h culture): 0.4
- The level of expressed mRNA in the presence of chemical substance/in the absence of chemical substance (yeast gene YBR036C): 1.8
- The level of expressed mRNA in the presence of chemical substance/The level of expressed mRNA in the absence of chemical substance (yeast gene YBR214W): 5.7
- The level of expressed mRNA in the presence of chemical substance/in the absence of chemical substance (yeast gene YBR298C): 1.6
- The level of expressed mRNA in the presence of chemical substance/The level of expressed mRNA in the absence of chemical substance (yeast gene YCL020W): 0.5
- The level of expressed mRNA in the presence of chemical substance/The level of expressed mRNA in the absence of chemical substance (yeast gene YCL027W): 1.0
- The level of expressed mRNA in the presence of chemical substance/The level of expressed mRNA in the absence of chemical substance (yeast gene YCR004C): 12.0
- The level of expressed mRNA in the presence of chemical substance/The level of expressed mRNA in the absence of chemical substance (yeast gene YCR071C): 0.9
- The level of expressed mRNA in the presence of chemical substance/The level of expressed mRNA in the absence of chemical substance (yeast gene YCR088W): 1.2
- The level of expressed mRNA in the presence of chemical substance/The level of expressed mRNA in the absence of chemical substance (yeast gene YDL008W): 1.0
- The level of expressed mRNA in the presence of chemical substance/ (yeast gene YDL072C, ratio to control without chemical): 3.5
- The level of expressed mRNA in the presence of chemical substance/in the absence of chemical substance (yeast gene YDL078C): 1.2
- The level of expressed mRNA in the presence of chemical substance/ (yeast gene YDL204W, ratio to control without chemical): 4.8
- The level of expressed mRNA in the presence of chemical substance/in the absence of chemical substance (yeast gene YDL215C): 1.0
- The level of expressed mRNA in the presence of chemical substance/ (yeast gene YDL222C, ratio to control without chemical): 1.5
- The level of expressed mRNA in the presence of chemical substance/The level of expressed mRNA in the absence of chemical substance (yeast gene YDL238C): 1.1
- The level of expressed mRNA in the presence of chemical substance/The level of expressed mRNA in the absence of chemical substance (yeast gene YDR055W): 2.2
- The level of expressed mRNA in the presence of chemical substance/The level of expressed mRNA in the absence of chemical substance (yeast gene YDR084C): 1.5
- The level of expressed mRNA in the presence of chemical substance/The level of expressed mRNA in the absence of chemical substance (yeast gene YDR085C): 1.6
- The level of expressed mRNA in the presence of chemical substance/The level of expressed mRNA in the absence of chemical substance (yeast gene YDR104C): 1.2
- The level of expressed mRNA in the presence of chemical substance/The level of expressed mRNA in the absence of chemical substance (yeast gene YDR115W): 0.6
- The level of expressed mRNA in the presence of chemical substance/The level of expressed mRNA in the absence of chemical substance (yeast gene YDR259C): 0.4
- The level of expressed mRNA in the presence of chemical substance/in the absence of chemical substance (yeast gene YDR297W): 0.8
- The level of expressed mRNA in the presence of chemical substance/The level of expressed mRNA in the absence of chemical substance (yeast gene YDR315C): 1.0
- The level of expressed mRNA in the presence of chemical substance/ (yeast gene YDR330W, ratio to control without chemical substance, 2 h culture): 1.2
- The level of expressed mRNA in the presence of chemical substance/The level of expressed mRNA in the absence of chemical substance (yeast gene YDR358W): 0.7
- The level of expressed mRNA in the presence of chemical substance/in the absence of chemical substance (yeast gene YDR387C): 1.2
- The level of expressed mRNA in the presence of chemical substance/The level of expressed mRNA in the absence of chemical substance (yeast gene YDR388W): 1.2
- The level of expressed mRNA in the presence of chemical substance/ (yeast gene YDR411C, ratio to control without chemical substance, 2 h culture): 1.8
- The level of expressed mRNA in the presence of chemical substance/The level of expressed mRNA in the absence of chemical substance (yeast gene YDR432W): 1.0
- The level of expressed mRNA in the presence of chemical substance/The level of expressed mRNA in the absence of chemical substance (yeast gene YDR481C): 1.3
- The level of expressed mRNA in the presence of chemical substance/The level of expressed mRNA in the absence of chemical substance (yeast gene YDR510W): 1.5
- The level of expressed mRNA in the presence of chemical substance/ (yeast gene YDR511W, ratio to control without chemical substance, 2 h culture): 0.9
- The level of expressed mRNA in the presence of chemical substance/ (yeast gene YDR545W, ratio to control without chemical substance, 2 h culture): 0.6
- The level of expressed mRNA in the presence of chemical substance/ (yeast gene YEL001C, ratio to control without chemical): 1.4
- The level of expressed mRNA in the presence of chemical substance/The level of expressed mRNA in the absence of chemical substance (yeast gene YEL042W): 1.7
- The level of expressed mRNA in the presence of chemical substance/The level of expressed mRNA in the absence of chemical substance (yeast gene YEL066W): 1.5
- The level of expressed mRNA in the presence of chemical substance/ (yeast gene YER004W, ratio to control without chemical substance, 2 h culture): 1.9
- The level of expressed mRNA in the presence of chemical substance/ (yeast gene YER035W, ratio to control without chemical substance, 2 h culture): 1.6
- The level of expressed mRNA in the presence of chemical substance/The level of expressed mRNA in the absence of chemical substance (yeast gene YER039C): 1.0
- The level of expressed mRNA in the presence of chemical substance/ (yeast gene YER079W, ratio to control without chemical substance, 2 h culture): 1.9
- The level of expressed mRNA in the presence of chemical substance/ (yeast gene YER106W, ratio to control without chemical): 1.3
- The level of expressed mRNA in the presence of chemical substance/The level of expressed mRNA in the absence of chemical substance (yeast gene YER107C): 1.0
- The level of expressed mRNA in the presence of chemical substance/The level of expressed mRNA in the absence of chemical substance (yeast gene YER130C): 0.5
- The level of expressed mRNA in the presence of chemical substance/ (yeast gene YER158C, ratio to control without chemical substance, 2 h culture): 0.9
- The level of expressed mRNA in the presence of chemical substance/ (yeast gene YER163C, ratio to control without chemical substance, 2 h culture): 1.2
- The level of expressed mRNA in the presence of chemical substance/ (yeast gene YER175C, ratio to control without chemical substance, 2 h culture): 1.3
- The level of expressed mRNA in the presence of chemical substance/ (yeast gene YFL006W, ratio to control without chemical substance, 2 h culture): 1.6
